Source: ChEMBL document CHEMBL1201862, “PubChem BioAssay data set” (2004)
The source made the active and inactive calls.

How the values were obtained:
[1] = target: Glyceraldehyde-3-phosphate dehydrogenase (Homo sapiens, UniProt P04406)
[2] = target: T1, Alkaline phosphatase, tissue-nonspecific isozyme (Homo sapiens, UniProt P05186); assay: human TNAP enzyme inhibitors, SAR follow-up, biochemical, luminescent, dose response (AID 1056)
T1 sequence (P05186 whole entry): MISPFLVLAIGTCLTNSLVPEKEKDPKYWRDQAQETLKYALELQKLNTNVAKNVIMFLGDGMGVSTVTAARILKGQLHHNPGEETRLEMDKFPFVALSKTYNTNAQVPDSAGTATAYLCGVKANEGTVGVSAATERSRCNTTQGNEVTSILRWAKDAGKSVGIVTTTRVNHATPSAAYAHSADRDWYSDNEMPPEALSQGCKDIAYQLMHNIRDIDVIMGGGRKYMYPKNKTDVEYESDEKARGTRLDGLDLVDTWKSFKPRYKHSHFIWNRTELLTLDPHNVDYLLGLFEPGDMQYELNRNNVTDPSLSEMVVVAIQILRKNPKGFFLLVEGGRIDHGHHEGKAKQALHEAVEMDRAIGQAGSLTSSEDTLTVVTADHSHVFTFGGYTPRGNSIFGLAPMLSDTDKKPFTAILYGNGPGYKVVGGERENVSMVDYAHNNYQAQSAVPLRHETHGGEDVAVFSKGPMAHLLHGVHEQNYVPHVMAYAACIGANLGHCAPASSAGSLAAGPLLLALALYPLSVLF

[3] = target: T2, Bcl-2-related protein A1 (Mus musculus, UniProt Q07440); assay type: functional;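 further: confirmatory dose–response counterscreen on Bfl-1, used to check hits from a UBC13 polyubiquitin inhibitor campaign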
T2 sequence (Q07440 whole entry): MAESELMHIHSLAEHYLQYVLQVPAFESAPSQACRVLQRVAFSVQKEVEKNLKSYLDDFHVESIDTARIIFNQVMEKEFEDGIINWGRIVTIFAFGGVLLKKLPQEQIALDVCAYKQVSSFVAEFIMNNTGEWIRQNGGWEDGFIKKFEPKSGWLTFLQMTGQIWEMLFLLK

[4] = target: T3, Ubiquitin-conjugating enzyme E2 N (Homo sapiens, UniProt P61088); assay type: functional
T3 sequence (P61088 whole entry): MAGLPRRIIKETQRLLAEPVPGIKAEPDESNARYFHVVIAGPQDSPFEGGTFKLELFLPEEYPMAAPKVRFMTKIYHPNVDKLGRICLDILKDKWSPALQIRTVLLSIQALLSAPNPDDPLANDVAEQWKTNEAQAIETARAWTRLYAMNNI

[5] = target: T3, Ubiquitin-conjugating enzyme E2 N; assay type: functional; remark: listed apart in the source
[6] = target: Nonstructural protein 1 (Influenza A virus, UniProt Q194T2); assay type: functional, Influenza A virus (A/California/07/2009(H1N1))
Chain of Nonstructural protein 1 (Q194T2 whole entry): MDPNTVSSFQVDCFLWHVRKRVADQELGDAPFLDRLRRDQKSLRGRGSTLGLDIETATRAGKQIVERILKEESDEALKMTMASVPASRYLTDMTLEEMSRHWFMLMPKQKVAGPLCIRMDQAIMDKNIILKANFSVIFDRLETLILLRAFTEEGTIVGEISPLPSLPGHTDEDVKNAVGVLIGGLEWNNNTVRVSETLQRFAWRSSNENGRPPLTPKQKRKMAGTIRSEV

[7] = target: T4, Sentrin-specific protease 8 (Homo sapiens, UniProt Q96LD8); assay type: functional
T4 sequence (Q96LD8 whole entry): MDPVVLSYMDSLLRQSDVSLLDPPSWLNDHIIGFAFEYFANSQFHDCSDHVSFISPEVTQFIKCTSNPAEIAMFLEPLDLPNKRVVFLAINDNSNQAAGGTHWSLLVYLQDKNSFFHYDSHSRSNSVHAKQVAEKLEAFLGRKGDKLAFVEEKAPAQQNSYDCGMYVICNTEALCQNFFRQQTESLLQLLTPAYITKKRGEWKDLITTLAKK

[8] = target: T4, Sentrin-specific protease 8; assay type: functional; remark: listed apart in the source
[9] = target: T5, DNA repair protein RAD52 homolog (Homo sapiens, UniProt P43351); assay type: functional, biochemical
T5 sequence (P43351 whole entry): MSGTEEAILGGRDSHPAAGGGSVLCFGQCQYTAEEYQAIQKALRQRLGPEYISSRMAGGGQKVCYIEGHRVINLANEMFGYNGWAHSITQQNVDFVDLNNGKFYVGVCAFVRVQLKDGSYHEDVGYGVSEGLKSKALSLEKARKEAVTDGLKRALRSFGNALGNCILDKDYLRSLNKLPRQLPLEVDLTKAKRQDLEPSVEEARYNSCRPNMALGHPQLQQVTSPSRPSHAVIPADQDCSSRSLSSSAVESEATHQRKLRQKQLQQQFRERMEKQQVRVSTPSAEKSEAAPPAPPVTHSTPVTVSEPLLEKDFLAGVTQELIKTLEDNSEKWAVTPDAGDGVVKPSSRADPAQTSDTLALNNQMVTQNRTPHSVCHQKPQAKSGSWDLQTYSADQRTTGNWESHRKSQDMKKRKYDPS

[10] = target: T6, Protein Rev (Human immunodeficiency virus type 1 group M subtype B (isolate HXB2)(HIV-1), UniProt P04618); assay: inhibitors of Rev binding to RRE RNA, dose response, biochemical, fluorescence polarization, HIV-1 (AID 434976); set-up: species or system Human immunodeficiency virus 1
T6 sequence (P04618 whole entry): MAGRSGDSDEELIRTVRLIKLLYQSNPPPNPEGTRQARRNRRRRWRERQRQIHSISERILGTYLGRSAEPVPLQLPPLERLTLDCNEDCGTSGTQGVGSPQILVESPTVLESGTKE

[11] = target: T7, Female germline-specific tumor suppressor gld-1 (Caenorhabditis elegans, UniProt Q17339); assay: inhibitors of GLD-1 binding to TGE RNA, dose response, biochemical, fluorescence polarization, C. elegans (AID 2802);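 further: fluorescence polarization of labeled TGE RNA bound by purified gld-1 protein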
T7 sequence (Q17339 whole entry): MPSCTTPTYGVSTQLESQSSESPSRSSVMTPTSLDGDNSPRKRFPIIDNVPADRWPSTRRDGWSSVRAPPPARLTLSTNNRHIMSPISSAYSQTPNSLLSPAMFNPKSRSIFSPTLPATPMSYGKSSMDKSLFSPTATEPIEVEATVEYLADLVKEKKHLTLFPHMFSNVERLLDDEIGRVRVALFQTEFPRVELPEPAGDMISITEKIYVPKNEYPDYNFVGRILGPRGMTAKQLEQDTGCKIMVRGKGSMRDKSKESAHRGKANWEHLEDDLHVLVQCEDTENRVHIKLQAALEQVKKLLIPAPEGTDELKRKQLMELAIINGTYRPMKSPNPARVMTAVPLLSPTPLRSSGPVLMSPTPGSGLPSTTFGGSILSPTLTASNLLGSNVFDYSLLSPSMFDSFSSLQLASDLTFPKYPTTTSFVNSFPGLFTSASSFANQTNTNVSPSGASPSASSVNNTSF

[12] = target: Genome polyprotein (dengue virus type 2, UniProt P29990); assay: Dengue-2 NS5 methyltransferase inhibitors, primary screen, biochemical, confirmation dose response (AID 588689); assay type: functional
[13] = target: Serine/threonine-protein phosphatase PP1-alpha catalytic subunit (Homo sapiens, UniProt P62136); assay: PP1 phosphatase inhibitors, dose response, biochemical, fluorescence (AID 2403);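 further: phosphatase turnover of OMFP into fluorescent 3-O-methylfluorescein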
Chain of Serine/threonine-protein phosphatase PP1-alpha catalytic subunit (P62136 whole entry): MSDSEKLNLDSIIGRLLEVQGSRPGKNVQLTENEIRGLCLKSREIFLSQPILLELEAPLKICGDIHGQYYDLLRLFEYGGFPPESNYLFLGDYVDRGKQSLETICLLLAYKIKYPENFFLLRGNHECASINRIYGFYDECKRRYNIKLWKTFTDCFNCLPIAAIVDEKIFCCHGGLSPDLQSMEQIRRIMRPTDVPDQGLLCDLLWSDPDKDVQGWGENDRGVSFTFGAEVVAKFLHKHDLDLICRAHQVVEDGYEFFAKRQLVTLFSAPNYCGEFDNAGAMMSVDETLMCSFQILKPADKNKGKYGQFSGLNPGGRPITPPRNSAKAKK

[14] = target: T8, Serine/threonine-protein phosphatase (Homo sapiens, UniProt Q9BPW0); assay: Counterscreen for inhibitors of PP1: fluorescence-based biochemical high throughput dose response assay to identify inhibitors of Protein Phosphatase 5 (PP5). [Related pubchem assays: 2034 (Summary (PP5 inhibitors)), 1987 (PP5 inhibitors in singlate), 2235 (PP1 inhibitors in singlate)]
T8 sequence (Q9BPW0 whole entry): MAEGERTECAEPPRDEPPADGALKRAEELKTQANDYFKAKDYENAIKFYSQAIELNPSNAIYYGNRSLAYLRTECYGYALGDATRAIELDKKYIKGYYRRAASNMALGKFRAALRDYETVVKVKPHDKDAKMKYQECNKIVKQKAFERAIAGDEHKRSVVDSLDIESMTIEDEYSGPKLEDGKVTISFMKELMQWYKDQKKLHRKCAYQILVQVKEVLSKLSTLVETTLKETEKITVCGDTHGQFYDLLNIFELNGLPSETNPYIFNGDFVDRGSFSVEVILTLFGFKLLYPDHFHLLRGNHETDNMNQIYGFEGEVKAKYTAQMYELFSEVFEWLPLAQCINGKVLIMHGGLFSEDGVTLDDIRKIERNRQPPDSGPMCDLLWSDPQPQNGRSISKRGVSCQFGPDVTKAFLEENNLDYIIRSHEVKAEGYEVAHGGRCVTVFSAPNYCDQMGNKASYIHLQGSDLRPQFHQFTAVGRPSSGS

[15] = target: T9, Coagulation factor XII (Homo sapiens, UniProt P00748); assay type: functional;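 further: activated factor XIIa alpha cleaving a fluorogenic AMC peptide substrate; inhibitor potency from loss of enzyme activity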
T9 sequence (P00748 whole entry): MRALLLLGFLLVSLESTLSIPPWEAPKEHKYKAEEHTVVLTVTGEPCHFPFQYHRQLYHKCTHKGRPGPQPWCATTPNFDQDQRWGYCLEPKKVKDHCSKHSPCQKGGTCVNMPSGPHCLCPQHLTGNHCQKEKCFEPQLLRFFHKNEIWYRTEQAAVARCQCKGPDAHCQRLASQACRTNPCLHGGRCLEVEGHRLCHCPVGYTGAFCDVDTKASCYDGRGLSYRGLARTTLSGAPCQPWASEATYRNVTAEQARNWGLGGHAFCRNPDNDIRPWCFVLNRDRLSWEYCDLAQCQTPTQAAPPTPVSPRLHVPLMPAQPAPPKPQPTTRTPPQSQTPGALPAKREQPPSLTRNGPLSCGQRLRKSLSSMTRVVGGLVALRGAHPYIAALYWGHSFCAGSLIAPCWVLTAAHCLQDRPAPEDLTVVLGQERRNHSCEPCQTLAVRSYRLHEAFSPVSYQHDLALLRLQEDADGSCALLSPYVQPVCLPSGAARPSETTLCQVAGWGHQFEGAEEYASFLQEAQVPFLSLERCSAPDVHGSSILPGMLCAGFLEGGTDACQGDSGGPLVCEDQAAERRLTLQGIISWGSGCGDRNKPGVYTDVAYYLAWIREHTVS

[16] = target: Peroxisome proliferator-activated receptor gamma/Nuclear receptor coactivator 1 (Homo sapiens, UniProt P37231); assay: TR-FRET dose response biochemical High Throughput Screening assay for agonists of the steroid receptor coactivator 1 (SRC-1) recruitment by the peroxisome proliferator-activated receptor gamma (PPAR gamma): non-selective agonists. [Related pubchem assays (depositor defined):AID1300, AID1808, AID504735, AID631]; assay type: protein assay
Chain of Peroxisome proliferator-activated receptor gamma/Nuclear receptor coactivator 1 (P37231 whole entry): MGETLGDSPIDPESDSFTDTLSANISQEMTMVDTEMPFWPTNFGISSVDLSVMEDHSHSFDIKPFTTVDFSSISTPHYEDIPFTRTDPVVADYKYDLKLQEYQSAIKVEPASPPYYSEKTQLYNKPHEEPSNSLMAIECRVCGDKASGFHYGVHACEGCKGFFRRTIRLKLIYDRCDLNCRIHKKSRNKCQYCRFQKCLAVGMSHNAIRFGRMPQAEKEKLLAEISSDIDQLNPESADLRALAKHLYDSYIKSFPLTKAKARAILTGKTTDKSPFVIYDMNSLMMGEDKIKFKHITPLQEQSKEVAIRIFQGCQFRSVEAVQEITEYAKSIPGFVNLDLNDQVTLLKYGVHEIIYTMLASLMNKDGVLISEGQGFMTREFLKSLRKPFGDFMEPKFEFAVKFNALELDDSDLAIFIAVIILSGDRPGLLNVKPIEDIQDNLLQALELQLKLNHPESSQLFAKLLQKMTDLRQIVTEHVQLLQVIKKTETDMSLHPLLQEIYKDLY
Chain of Peroxisome proliferator-activated receptor gamma/Nuclear receptor coactivator 1 (Q15788 whole entry, further chain): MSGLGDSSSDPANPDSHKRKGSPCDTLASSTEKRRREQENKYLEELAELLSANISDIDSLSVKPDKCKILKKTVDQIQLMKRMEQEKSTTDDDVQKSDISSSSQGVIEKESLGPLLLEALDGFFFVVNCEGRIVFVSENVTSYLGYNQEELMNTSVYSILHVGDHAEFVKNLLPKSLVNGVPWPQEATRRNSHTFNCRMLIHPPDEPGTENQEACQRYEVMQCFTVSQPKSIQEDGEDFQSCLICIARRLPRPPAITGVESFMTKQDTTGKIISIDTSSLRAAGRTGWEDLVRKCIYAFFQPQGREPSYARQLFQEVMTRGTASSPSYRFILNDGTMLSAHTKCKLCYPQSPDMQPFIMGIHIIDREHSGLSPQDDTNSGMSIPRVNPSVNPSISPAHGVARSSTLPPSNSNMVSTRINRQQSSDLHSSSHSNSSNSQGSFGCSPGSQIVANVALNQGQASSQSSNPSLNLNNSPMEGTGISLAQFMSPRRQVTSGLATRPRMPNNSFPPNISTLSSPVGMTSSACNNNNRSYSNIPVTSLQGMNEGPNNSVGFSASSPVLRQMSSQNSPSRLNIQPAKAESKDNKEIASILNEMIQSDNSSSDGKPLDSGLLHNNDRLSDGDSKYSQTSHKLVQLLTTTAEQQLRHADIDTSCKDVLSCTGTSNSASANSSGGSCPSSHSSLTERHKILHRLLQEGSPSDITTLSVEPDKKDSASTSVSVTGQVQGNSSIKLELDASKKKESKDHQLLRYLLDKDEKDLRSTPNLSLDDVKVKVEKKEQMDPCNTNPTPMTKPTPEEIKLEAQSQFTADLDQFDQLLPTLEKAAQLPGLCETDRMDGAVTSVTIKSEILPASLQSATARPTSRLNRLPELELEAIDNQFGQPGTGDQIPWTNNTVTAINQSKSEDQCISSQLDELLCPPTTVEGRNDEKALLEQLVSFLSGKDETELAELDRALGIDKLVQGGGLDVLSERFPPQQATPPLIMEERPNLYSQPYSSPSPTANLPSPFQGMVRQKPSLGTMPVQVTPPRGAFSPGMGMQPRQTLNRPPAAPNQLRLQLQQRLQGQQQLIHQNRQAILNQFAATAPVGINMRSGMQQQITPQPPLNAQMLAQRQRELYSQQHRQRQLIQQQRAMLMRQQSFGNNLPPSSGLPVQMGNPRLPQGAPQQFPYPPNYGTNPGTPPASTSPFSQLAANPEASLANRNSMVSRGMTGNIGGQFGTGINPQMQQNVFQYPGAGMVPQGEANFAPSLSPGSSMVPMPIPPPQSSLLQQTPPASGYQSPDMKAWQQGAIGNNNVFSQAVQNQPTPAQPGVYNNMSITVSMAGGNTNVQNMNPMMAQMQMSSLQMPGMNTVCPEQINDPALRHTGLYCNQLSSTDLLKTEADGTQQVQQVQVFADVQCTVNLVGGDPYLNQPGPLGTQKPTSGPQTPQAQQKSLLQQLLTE

[17] = target: Peroxisome proliferator-activated receptor gamma/Nuclear receptor coactivator 3 (Homo sapiens, UniProt P37231); assay: TR-FRET dose response biochemical High Throughput Screening assay for agonists of the steroid receptor coactivator 3 (SRC-3) recruitment by the peroxisome proliferator-activated receptor gamma (PPAR gamma): non-selective agonists. [Related pubchem assays: 1301 (Confirmation screen.), 1048 (Primary screen.)]; assay type: functional
[18] = target: Peroxisome proliferator-activated receptor gamma/Nuclear receptor coactivator 2 (Homo sapiens, UniProt P37231); assay: TR-FRET dose response biochemical High Throughput Screening assay for agonists of the steroid receptor coactivator 2 (SRC-2) recruitment by the peroxisome proliferator-activated receptor gamma (PPAR gamma): non-selective agonists. [Related pubchem assays: 1297, 1032 ]; assay type: functional
Chain of Peroxisome proliferator-activated receptor gamma/Nuclear receptor coactivator 2 (P37231 whole entry): as the sequence (P37231 whole entry) above
Chain of Peroxisome proliferator-activated receptor gamma/Nuclear receptor coactivator 2 (Q15596 whole entry, further chain): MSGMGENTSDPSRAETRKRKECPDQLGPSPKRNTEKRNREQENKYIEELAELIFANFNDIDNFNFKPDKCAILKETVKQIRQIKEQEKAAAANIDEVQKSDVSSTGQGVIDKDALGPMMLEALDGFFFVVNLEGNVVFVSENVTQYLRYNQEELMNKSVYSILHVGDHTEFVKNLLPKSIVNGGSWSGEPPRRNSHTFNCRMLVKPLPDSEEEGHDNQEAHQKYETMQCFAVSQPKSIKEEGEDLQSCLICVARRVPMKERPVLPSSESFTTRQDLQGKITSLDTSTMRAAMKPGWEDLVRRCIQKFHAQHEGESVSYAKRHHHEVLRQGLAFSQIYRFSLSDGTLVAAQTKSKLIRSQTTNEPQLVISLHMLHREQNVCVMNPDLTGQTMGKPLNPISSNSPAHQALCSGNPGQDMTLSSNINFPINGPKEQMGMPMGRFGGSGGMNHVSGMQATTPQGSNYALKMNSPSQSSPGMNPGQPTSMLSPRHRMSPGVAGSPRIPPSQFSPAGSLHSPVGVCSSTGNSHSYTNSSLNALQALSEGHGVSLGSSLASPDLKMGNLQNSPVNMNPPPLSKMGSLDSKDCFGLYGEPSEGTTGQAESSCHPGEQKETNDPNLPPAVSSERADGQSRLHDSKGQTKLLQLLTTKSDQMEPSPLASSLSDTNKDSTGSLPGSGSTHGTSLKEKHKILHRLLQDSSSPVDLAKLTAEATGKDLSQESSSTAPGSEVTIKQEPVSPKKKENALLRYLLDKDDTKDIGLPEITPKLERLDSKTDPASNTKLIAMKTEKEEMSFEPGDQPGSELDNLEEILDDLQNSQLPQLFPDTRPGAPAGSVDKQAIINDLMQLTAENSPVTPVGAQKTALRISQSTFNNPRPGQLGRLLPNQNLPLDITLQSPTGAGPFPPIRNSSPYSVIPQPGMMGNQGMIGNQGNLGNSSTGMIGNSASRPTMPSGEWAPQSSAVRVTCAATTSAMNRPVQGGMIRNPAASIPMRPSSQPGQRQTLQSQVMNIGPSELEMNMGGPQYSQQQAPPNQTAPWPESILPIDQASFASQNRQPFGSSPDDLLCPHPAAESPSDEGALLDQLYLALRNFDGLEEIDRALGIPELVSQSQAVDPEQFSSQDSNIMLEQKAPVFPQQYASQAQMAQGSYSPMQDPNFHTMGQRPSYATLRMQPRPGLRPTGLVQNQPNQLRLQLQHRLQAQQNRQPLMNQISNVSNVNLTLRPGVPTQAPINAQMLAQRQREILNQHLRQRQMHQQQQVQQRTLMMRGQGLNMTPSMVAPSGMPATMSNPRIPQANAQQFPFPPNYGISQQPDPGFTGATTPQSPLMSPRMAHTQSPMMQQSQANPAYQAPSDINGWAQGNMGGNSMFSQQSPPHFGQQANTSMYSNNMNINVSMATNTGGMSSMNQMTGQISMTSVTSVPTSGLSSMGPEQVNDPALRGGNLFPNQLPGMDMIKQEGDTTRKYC

[19] = HEp-2 cell cytotoxicity, dose response, cytotoxicity control for RSV inhibitor project, HTS (AID 2410); assay type: functional; conditions: human respiratory syncytial virus
[20] = inhibitors of intracellular T. cruzi replication, confirmation, NIH3T3 host cells, beta-gal luminescence (AID 2044); assay type: functional, cell-based;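 further: intracellular parasites grown in NIH/3T3 mouse fibroblasts as host cells; luminescent beta-galactosidase reporter signal from transgenic T. cruzi replicating inside host cells; inhibitors lower the luminescence signal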
[21] = cytotoxicity toward NIH3T3 fibroblasts, dose response, counter-screen, cell-based, ATP luminescence, mouse fibroblasts (AID 2010); assay type: functional;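 further: cells exposed to compound for about 90 hours before reading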
[22] = cells

Chain of Glyceraldehyde-3-phosphate dehydrogenase (P04406 whole entry): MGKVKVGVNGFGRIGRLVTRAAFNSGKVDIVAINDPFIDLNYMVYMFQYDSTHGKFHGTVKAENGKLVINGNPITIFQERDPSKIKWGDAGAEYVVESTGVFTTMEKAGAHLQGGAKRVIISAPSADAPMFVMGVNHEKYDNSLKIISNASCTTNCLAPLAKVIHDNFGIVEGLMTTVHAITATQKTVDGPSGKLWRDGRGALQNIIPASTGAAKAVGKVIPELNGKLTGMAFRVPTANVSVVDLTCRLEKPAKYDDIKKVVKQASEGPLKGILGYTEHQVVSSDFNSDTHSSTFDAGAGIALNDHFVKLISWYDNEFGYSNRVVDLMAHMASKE

O=C1c2ccccc2C(=O)N1c1nnc(Cc2ccc(F)cc2)[nH]1
IC50 [1]: > 100 µM (not active)
IC50 [2]: 4.66 µM (active)

CN1CCN(c2cc(-c3cc(O)c4ncccc4c3)ccn2)CC1
IC50 [3]: 12.5 µM (active)
IC50 [4]: 15.6 µM (active)
IC50 [5]: 10.8 µM (active)
IC50 [6]: 9.85 µM (active)
IC50 [7]: 5.17 µM (active)
IC50 [8]: 6.88 µM (active)
AC50 [9]: 1.58 µM (active)

Cc1ccc(C(=O)N/N=C/c2ccc(-c3ccc(Br)cc3[N+](=O)[O-])o2)o1
IC50 [10]: > 25.1 µM (not active)
IC50 [11]: 10.4 µM (inactive)
IC50 [12]: > 100 µM (active)

COc1cnc(-c2ccccn2)nc1Oc1cccc(Cl)c1
IC50 [13]: 8.46 µM (active)
IC50 [14]: > 67 µM (not active)

CCOc1cc(CO)ccc1OCC(=O)N1CCCCC1
IC50 [15]: > 50 µM (inactive)

Cc1cc(N2C(=O)C(O)=C(C(=O)c3ccc(Cl)cc3)C2c2cccc(Br)c2)no1 (stereo unspecified)
EC50 [16]: > 79.4 µM (inactive)
EC50 [17]: > 79.4 µM (not active)
EC50 [18]: 113 µM (not active)

CC(=O)Nc1nnc(S(C)(=O)=O)[nH]1
IC50 [1]: > 100 µM (not active)
IC50 [2]: > 100 µM (inactive)

Cc1ccc(C)c(Nc2c([N+](=O)[O-])cc(C(=O)N3CC(=O)Nc4ccccc43)cc2[N+](=O)[O-])c1
CC50 [19]: 28.3 µM (active)
EC50 [20]: 0.992 µM (active)
EC50 [21]: > 60 µM (inconclusive)
IC50 [22]: 41.7 µM (active)

CCCCc1nc2sc3c(SCC(=O)NCc4ccco4)ncnc3c2c2c1CCC2
EC50 [16]: 78.6 µM (inactive)
EC50 [17]: > 79.4 µM (not active)
EC50 [18]: 58.8 µM (not active)

CCOC(=O)c1cnc(-n2nc(C)cc2C)nc1NCCc1ccccc1
IC50 [13]: 6.96 µM (active)
EC50 [20]: 2.04 µM (active)
IC50 [14]: > 67 µM (not active)
EC50 [21]: > 30 µM (not active)

COc1ccccc1CC(=O)NN1C(=O)c2ccccc2C1=O
IC50 [15]: > 50 µM (inactive)

Cc1ccc(C(=O)N/C(=C/c2ccc(C(C)C)cc2)C(=O)NCCCN2CCOCC2)cc1
CC50 [19]: > 50 µM (active)
IC50 [22]: 13.2 µM (active)

O=S(=O)(Nc1cnc2ccccc2c1)c1ccccc1
IC50 [1]: > 100 µM (not active)
IC50 [2]: > 100 µM (inactive)
